Assay results: patent publication US20260101901A1, “DELAYING BLOOM IN HORTICULTURAL CROPS USING JASMONIC ACID BIOSYNTHESIS INHIBITORS” (VIRGINIA TECH INTELLECTUAL PROPERTIES INC., priority 2022, published 2026)

Assays:
[1] = tested on: ‘Redhaven’ peach; assay type: in vivo; conditions: antipyrine 50 mM, propyl gallate 15 mM, four weekly applications from swollen bud stage
Protocol: (§1) In this study, we investigated the influence of propyl gallate and Antipyrine on the flowering time of ‘Redhaven’ and ‘Sunhigh’ cultivars. Three adjacent trees were randomly chosen, each as a replicate, and subjected to treatments: propyl gallate (15 mM), antipyrine (50 mM), and an untreated control. Four applications of each treatment were administered weekly, commencing at the swollen bud stage, which are concurrent at 2059, 2167, 2356, and 3128 DGH, respectively, employing a hand sprayer with the volume of 2.5 L per tree. Regulaid, a non-ionic surfactant from Kalo Inc. (Overland Park, KS, United States) was mixed with all treatments and experiments at the rate of 250 ppm.
(§2) At the pink-bud stage, three-four branches from each treated and untreated (control) tree were randomly selected across the tree and flagged using colored ribbons. […] The progression of flower opening was recorded by periodically counting the number of open blossoms in each experiment. The number of open flowers (anthers visible) was counted every 1-3 days until all buds reached the full bloom stage (50% of flowers are fully open). The blooming rate at each time point was calculated as the ratio of open blossoms to the initial bud number per tree, and the flowering date (F50) for each treatment was determined when the blooming rate reached 50%. […]

[2] = tested on: ‘Sunhigh’ peach; assay: Exp. 5 (2023) field trial: propyl gallate and antipyrine, flowering time; assay type: in vivo; conditions: antipyrine 50 mM, propyl gallate 15 mM, four weekly applications from swollen bud stage
Protocol: as §1, §2

[3] = tested on: ‘John Boy’ peach trees; assay: Exp. 1 (2021) field trial: DIECA concentrations sprayed at 1000 GDH, bloom time, fruit set and size; assay type: in vivo; conditions: for Heat requirements / Flowering (F50) date / Days from endodormancy release to flowering (F50): sprayed at 1000 GDH, ‘John Boy’ 2021; for Flowering (F50) date: control 06 April; for Days from endodormancy release to flowering (F50): control 69 b
Protocol: (§3) The field trials were taken place at the Alson H. Smith Jr. Agricultural Research and Extension Center (AREC), Winchester, VA, the United States (39°06′36.0′N 78°16′48.0′W). Experiments were conducted over two growing seasons (2021 and 2022) on 3-year-old ‘John Boy’ and 10-year-old ‘Redhaven’ peach trees; both are grafted on ‘Lovell’ rootstock.
(§4) Chilling and heat accumulation were computed from meteorological data obtained from each orchard. Data loggers (EasyLog, Lascar) were kept in enclosed wooden shelters 1.2 m above the ground and recorded temperatures at 10 min intervals. Chilling requirements were calculated using the chilling hours (CH) model (Weinberger, 1950), in which each hourly temperatures within the range of 0-7.2° C. were registered as 1 CH, and temperatures outside of this range were not considered. Starting at 500 CH, three one-year-old branches, each with at least 10 floral buds, were collected weekly from each treatment. After removal of the terminal buds, the branches were placed in a beaker containing a floral solution prepared with Floralife (Smithers-Oasis Co., Walterboro, SC, USA). The floral solution was replaced weekly and around 1 cm was trimmed from the basal end of each branch to eliminate potential infections. The branches were kept in a growth chamber with conditions favoring bud growth (photoperiod with fluorescent lamps at 135 μmol·m^−2·s^−1 of 16 h at 25° C., a dark period of 8 h at 20° C., and a constant relative humidity of 65%). The endodormancy release and CRs were considered fulfilled when 50% of the buds have reached the calyx green stage after 14 days in the growth chamber.
(§5) After completion of CR, heat requirements were recorded according to the growing degree hours (GDH) model proposed by Richardson et al. (1975). In this model, hourly temperatures less than 4.5° C. registered no GDH; temperatures in the interval of 4.5-25° C. were adjusted by subtracting 4.5° C., and temperatures greater than 25° C. were registered as 20.5 (25-4.5) GDH. Heat requirements (HR) were calculated as the GDH accumulated from the date of endodormancy release (under growth chambers conditions) to the date 50% of buds were in full bloom, F50 (under field conditions).
This trial was conducted on ‘John Boy’ peach trees. Three different concentrations (0.5 mM, 10 mM, and 25 mM) of DIECA (Sigma-Aldrich Co., St Louis, MO, USA) were sprayed on three groups of trees, each group is composed of three adjacent trees. Treatments and control (untreated) trees were arranged in a completely randomized design (CRD). At least one buffer tree was assigned between each treatment to avoid spray drift. Trees were sprayed on 3 Mar. 2021 at 1000 GDH at a spray volume of 0.3 L per tree, using a hand sprayer. Regulaid (250 ppm), a non-ionic surfactant from Kalo Inc. (Overland Park, KS, United States) was mixed with all treatments and experiments at the rate of 250 ppm.
(§6) At the pink-bud stage, three-four branches from each treated and untreated (control) tree were randomly selected across the tree and flagged using colored ribbons. The number of buds on selected branches (at least 80 bud/tree) was used as the initial bud count. The progression of flower opening was recorded by periodically counting the number of open blossoms in each experiment. The number of open flowers (anthers visible) was counted every 1-3 days until all buds reached the full bloom stage (50% of flowers are fully open). The blooming rate at each time point was calculated as the ratio of open blossoms to the initial bud number per tree, and the flowering date (F50) for each treatment was determined when the blooming rate reached 50%. The numbers of fruit on the marked branches were counted 2 and 4 and 8 weeks after full bloom. Percent fruit set was calculated as the number of fruits divided by the number of flowers times 100.

[4] = tested on: ‘John Boy’ peach trees; assay: as above; assay type: in vivo; design: Delay of the flowering date (F50) vs control: dose or concentration left out as unconfirmed
[5] = tested on: ‘Redhaven’ peach trees; assay: Exp. 2 (2021) field trial: DIECA application timing, bloom time; assay type: in vivo; conditions: DIECA 10 mM applied at 1000 GDH
Protocol: as §3
(§7) Chilling and heat accumulation were computed from meteorological data obtained from each orchard. Data loggers (EasyLog, Lascar) were kept in enclosed wooden shelters 1.2 m above the ground and recorded temperatures at 10 min intervals. Chilling requirements were calculated using the chilling hours (CH) model (Weinberger, 1950), in which each hourly temperatures within the range of 0-7.2° C. were registered as 1 CH, and temperatures outside of this range were not considered. Starting at 500 CH, three one-year-old branches, each with at least 10 floral buds, were collected weekly from each treatment. […]
(§8) After completion of CR, heat requirements were recorded according to the growing degree hours (GDH) model proposed by Richardson et al. (1975). […] Heat requirements (HR) were calculated as the GDH accumulated from the date of endodormancy release (under growth chambers conditions) to the date 50% of buds were in full bloom, F50 (under field conditions). […]

[6] = tested on: ‘John Boy’ peach trees; assay: Exp. 4 (2022) field trial: late DIECA application at 2000 GDH, bloom time and fruit set; assay type: in vivo; conditions: DIECA 50 mM at 2000 GDH
Protocol: as §3, §7, §8

[7] = tested on: ‘Redhaven’ peach trees; assay: Exp. 3 (2022) field trial: DIECA concentrations sprayed at 500 GDH, bloom time and fruit set; assay type: in vivo; conditions: for Heat requirements / Flowering (F50) date / Days from endodormancy release to flowering (F50): sprayed at 500 GDH, ‘Redhaven’ 2022; for Flowering (F50) date: control 01 April; for Days from endodormancy release to flowering (F50): control 72 c
Protocol: as §3, §4, §5
In this trial, we used peach ‘Redhaven’ trees to examine the effects of three different concentrations (12.5, 25 and 50 mM) of DIECA on blooming time. Three adjacent trees were assigned for each treatment. All treated and untreated (control) trees were distributed in the orchard according to the CRD experimental design. DIECA treatments were applied at 500 GDH at a spray volume of 1.8 L per tree, using a high-pressure tree sprayer.
as §6

[8] = tested on: ginseng, wheat and tea plant (Camellia sinensis); conditions: DIECA application; cited from earlier work
[9] = tested on: peach and other stone fruits; conditions: cited from earlier work

Cc1cc(=O)n(-c2ccccc2)n1C [Antipyrine, antipyrine]
Bloom delay compared to the control [1]: two | Bloom delay compared to the control [2]: four

CCN(CC)C(=S)[S-].[Na+] [DIECA, sodium diethyldithiocarbamate]
Heat requirements ([3]; DIECA 0.5 mM): 5373 GDH | Flowering (F50) date ([3]; DIECA 0.5 mM): 06 April | Days from endodormancy release to flowering (F50) ([3]; DIECA 0.5 mM): 69 b days | Heat requirements ([3]; DIECA 10 mM): 5539 GDH | Flowering (F50) date ([3]; DIECA 10 mM): 07 April | Days from endodormancy release to flowering (F50) ([3]; DIECA 10 mM): 70 b days | Delay in the blooming ([3]; DIECA 25 mM (highest concentration), 1000 GDH, ‘John Boy’): significant delay in the blooming | Heat requirements ([3]; DIECA 25 mM): 6048 GDH | Flowering (F50) date ([3]; DIECA 25 mM): 08 April | Days from endodormancy release to flowering (F50) ([3]; DIECA 25 mM): 72 a days | Delay of the flowering date (F50) vs control ([4]; DIECA, 1000 GDH, ‘John Boy’): three | Bloom progression compared to the control [5]: slightly delayed bloom progression | Bloom-delaying effect ([5]; 2000 GDH or 1000+2000 GDH): None of the DIECA application timings showed a significant bloom-delaying effect | Flowering time vs control [6]: No significant differences | Heat requirements ([7]; DIECA 12.5 mM): 6090 GDH | Flowering (F50) date ([7]; DIECA 12.5 mM): 04 April | Days from endodormancy release to flowering (F50) ([7]; DIECA 12.5 mM): 75 bc days | Delay in bloom time compared to the untreated control ([7]; DIECA 25 mM at 500 GDH): 3 days | Heat requirements ([7]; DIECA 25 mM): 6090 GDH | Flowering (F50) date ([7]; DIECA 25 mM): 04 April | Days from endodormancy release to flowering (F50) ([7]; DIECA 25 mM): 75 b days | Delay in bloom time compared to the untreated control ([7]; DIECA 50 mM at 500 GDH): 6 days | Heat requirements ([7]; DIECA 50 mM): 6478 GDH | Flowering (F50) date ([7]; DIECA 50 mM): 07 April | Days from endodormancy release to flowering (F50) ([7]; DIECA 50 mM): 78 a days | Bloom delay ([7]; all DIECA applications (12.5, 25, 50 mM) at 500 GDH): remarkable bloom delay | Bloom delay in peach ([7]; high DIECA concentrations (>25 mM) at early ecodormancy (~500 GDH)): 3 to 6 days | JA levels [8]: substantially reduce JA levels

CCN(CC)C(=S)[S][Na] [DIECA, sodium diethyldithiocarbamate]
Fruit size vs control ([3]; DIECA 0.5, 10, 25 mM, 6 WAFB): No significant differences | Fruit set (%) vs control ([4]; DIECA 0.5, 10, 25 mM, 3 and 6 WAFB): No significant differences | Fruit set (%) vs control ([6]; 2 and 4 WAFB): no significant differences | Fruit set (%) vs control ([7]; DIECA 12.5, 25, 50 mM at 500 GDH, 2 and 4 WAFB): did not show significant differences

O=P(O)(O)CCCl [ET, 2-chloroethylphosphonic acid]
Detrimental effects ([9]; high concentration application): gummosis, abortion of floral buds and dieback of the branches | Bloom delay ([9]; high concentration, applied in the fall): more than two weeks

CCCOC(=O)c1cc(O)c(O)c(O)c1 [propyl gallate, n-propyl gallate]
Bloom delay compared to the control [1]: no significant impact | Bloom delay compared to the control [2]: single
